pIC50: −log10 of the molar value.
Tests used:
Fyn = Fyn (Homo sapiens, UniProt P06241); experiment: Kinase assay, Fyn; assay type: biochemical
Experimental: (§1) Kinase activity and compound inhibition are investigated using one or more assay formats. The ATP concentrations for each assay are selected to be close to the Michaelis-Menten constant (KM) for each individual kinase. Dose-response experiments are performed at 10 different inhibitor concentrations in a 384-well plate format. […] Exemplary kinase assays are described below. KDR Assay

EphA2 = EphA2 (Homo sapiens, UniProt P29317); experiment: Kinase assay, EphA2 (33P-ATP incorporation or luciferase-coupled ATP consumption); assay type: biochemical
Procedure, shortened: (§2)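 Two formats used: luciferase/luciferin chemiluminescence of ATP consumed with pEY, or radiometric 33P transfer to plate-bound MBP or pEY read by scintillation.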

IRK = IRK (Homo sapiens, UniProt P06213); experiment: Kinase assay, IRK; assay type: biochemical
Experimental: as §1

c-Kit kinase = c-Kit kinase (Homo sapiens, UniProt P10721); experiment: c-Kit AlphaScreen kinase assay; assay type: biochemical
Experimental: as §1
c-Kit biochemical activity was assessed using AlphaScreen™ (Perkin Elmer) technology, described above. Test compounds, ATP, biotinylated poly(Glu, Tyr) and c-Kit kinase were combined in a volume of 20 μL in a 384-well white, medium binding microtiter plate (Greiner). Reaction mixtures were incubated for 1 hr at ambient temperature. Reactions were quenched by addition of 10 uL of […] AlphaScreen bead suspension containing 75 mM Hepes, pH 7.4, 300 mM NaCl, 120 mM EDTA, 0.3% BSA and 0.03% Tween-20. After 16 hr incubation at ambient temperature plates were read using an AlphaQuest reader (Perkin Elmer).

EGFR = EGFR (Homo sapiens, UniProt P00533); experiment: Kinase assay, EGFR (33P-ATP incorporation or luciferase-coupled ATP consumption); assay type: biochemical
Procedure, shortened: as §2

Flt3 = biological target: T1, Flt3 (Homo sapiens, UniProt P36888); experiment: Kinase assay, Flt3; assay type: biochemical
T1 sequence (P36888 27-993): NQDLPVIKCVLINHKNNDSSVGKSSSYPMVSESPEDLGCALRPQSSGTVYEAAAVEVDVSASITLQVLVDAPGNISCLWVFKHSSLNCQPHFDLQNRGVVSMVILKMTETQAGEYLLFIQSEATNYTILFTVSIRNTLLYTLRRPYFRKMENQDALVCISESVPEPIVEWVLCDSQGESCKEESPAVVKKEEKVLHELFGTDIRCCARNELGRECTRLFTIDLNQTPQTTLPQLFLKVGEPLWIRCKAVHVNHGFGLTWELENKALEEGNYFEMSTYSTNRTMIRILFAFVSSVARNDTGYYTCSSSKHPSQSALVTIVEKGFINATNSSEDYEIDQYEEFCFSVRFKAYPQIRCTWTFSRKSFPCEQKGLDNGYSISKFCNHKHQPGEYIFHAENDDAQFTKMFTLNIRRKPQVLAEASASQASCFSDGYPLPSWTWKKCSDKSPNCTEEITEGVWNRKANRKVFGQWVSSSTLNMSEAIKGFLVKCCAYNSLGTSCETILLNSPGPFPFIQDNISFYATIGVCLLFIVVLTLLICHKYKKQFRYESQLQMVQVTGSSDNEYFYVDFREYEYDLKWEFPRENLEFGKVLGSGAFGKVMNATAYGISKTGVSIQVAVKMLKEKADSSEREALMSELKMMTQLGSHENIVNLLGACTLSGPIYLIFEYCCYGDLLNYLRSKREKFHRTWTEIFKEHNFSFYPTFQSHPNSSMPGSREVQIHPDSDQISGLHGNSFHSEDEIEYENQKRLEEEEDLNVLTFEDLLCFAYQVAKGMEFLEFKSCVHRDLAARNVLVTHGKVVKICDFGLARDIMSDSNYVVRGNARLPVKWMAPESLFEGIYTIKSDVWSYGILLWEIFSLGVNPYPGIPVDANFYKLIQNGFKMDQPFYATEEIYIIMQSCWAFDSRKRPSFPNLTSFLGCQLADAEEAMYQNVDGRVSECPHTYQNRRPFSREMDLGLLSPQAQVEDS
Experimental: as §1

ALK = ALK (Homo sapiens, UniProt Q9UM73); experiment: Kinase assay, ALK (33P-ATP incorporation or luciferase-coupled ATP consumption); assay type: biochemical
Experimental: Kinase assays were performed by measurement of incorporation of γ-^33P ATP into immobilized myelin basic protein (MBP). […] Plates were washed 3× with 100 μl TBS. […] Compound dilutions were performed in DMSO and added to assay wells to a final DMSO concentration of 1%. Each data point was measured in duplicate, and at least two duplicate assays were performed for each individual compound determination. Enzyme was added to final concentrations of 10 nM or 20 nM, for example. A mixture of unlabeled ATP and γ-^33P ATP was added to start the reaction (2×10^6 cpm of γ-^33P ATP per well (3000 Ci/mmole) and either 10 μM or 30 μM unlabeled ATP, typically. The reactions were carried out for 1 hour at room temperature with shaking. Plates were washed 7× with TBS, followed by the addition of 50 μl/well scintillation fluid (Wallac). Plates were read using a Wallac Trilux counter. This is only one format of such assays, various other formats are possible, as known to one of ordinary skill in the art.
Tyrosine kinase activity is determined by 1) measurement of kinase-dependent ATP consumption by in the presence of a generic substrate such as, polyglutamic acid, tyrosine, 4:1 (pEY), by luciferase/luciferin-mediated chemiluminescence or; 2) incorporation of radioactive phosphate derived from ^33P-ATP into a generic substrate which has been adsorbed onto the well surface of polystyrene microtiter plates. Phosphorylated substrate products are quantified by scintillation spectrometry.
as §1

FGFR1 = FGFR1 (Homo sapiens, UniProt P11362); experiment: Kinase assay, FGFR1 (33P-ATP incorporation or luciferase-coupled ATP consumption); assay type: biochemical
Procedure, shortened: as §2

[1] = biological target: T2, KDR (baculovirus expressed human KDR kinase domain D807-V1356) (Homo sapiens, UniProt P35968); experiment: biochemical
T2 construct: human KDR kinase domain D807-V1356; host or cells: baculovirus expression system
Procedure, shortened: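 Baculovirus human KDR kinase domain (D807–V1356) with ATP near its KM; 10-point dose-response, 4 h at ambient temperature. Activity taken as percent ATP remaining, detected by luciferase–luciferin chemiluminescence.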

PDGFR alpha = PDGFR alpha (Homo sapiens, UniProt P16234); experiment: Kinase assay, PDGFR alpha (33P-ATP incorporation or luciferase-coupled ATP consumption); assay type: biochemical; conditions: read-out: PDGF-R-A IC50
Procedure, shortened: as §2

c-Kit kinase, sequence (P10721 26-976): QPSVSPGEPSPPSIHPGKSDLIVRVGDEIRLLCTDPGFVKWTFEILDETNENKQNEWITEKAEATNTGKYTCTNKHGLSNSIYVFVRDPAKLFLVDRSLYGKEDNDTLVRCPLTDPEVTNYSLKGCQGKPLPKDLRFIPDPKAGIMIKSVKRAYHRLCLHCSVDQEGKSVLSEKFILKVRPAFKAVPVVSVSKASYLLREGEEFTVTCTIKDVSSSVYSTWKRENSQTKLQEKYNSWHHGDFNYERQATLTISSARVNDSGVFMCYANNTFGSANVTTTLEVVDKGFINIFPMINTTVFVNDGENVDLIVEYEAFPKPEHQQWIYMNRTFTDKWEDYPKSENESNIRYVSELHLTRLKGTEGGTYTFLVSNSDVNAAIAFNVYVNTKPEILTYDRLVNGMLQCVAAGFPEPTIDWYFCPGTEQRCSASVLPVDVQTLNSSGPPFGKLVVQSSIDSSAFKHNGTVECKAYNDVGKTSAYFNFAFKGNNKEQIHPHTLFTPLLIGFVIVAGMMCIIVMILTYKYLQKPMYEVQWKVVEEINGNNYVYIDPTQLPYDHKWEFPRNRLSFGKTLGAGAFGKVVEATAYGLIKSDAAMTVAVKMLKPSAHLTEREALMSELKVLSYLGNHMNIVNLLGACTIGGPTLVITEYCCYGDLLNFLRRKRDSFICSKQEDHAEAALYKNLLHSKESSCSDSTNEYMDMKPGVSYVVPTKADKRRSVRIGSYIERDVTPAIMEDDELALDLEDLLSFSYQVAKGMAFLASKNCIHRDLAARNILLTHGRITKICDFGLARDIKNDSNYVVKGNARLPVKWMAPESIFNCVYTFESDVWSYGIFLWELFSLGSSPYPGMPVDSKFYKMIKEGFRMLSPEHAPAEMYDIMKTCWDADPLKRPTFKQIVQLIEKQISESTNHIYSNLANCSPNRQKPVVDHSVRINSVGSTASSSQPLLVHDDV
IRK, sequence (P06213 28-1382): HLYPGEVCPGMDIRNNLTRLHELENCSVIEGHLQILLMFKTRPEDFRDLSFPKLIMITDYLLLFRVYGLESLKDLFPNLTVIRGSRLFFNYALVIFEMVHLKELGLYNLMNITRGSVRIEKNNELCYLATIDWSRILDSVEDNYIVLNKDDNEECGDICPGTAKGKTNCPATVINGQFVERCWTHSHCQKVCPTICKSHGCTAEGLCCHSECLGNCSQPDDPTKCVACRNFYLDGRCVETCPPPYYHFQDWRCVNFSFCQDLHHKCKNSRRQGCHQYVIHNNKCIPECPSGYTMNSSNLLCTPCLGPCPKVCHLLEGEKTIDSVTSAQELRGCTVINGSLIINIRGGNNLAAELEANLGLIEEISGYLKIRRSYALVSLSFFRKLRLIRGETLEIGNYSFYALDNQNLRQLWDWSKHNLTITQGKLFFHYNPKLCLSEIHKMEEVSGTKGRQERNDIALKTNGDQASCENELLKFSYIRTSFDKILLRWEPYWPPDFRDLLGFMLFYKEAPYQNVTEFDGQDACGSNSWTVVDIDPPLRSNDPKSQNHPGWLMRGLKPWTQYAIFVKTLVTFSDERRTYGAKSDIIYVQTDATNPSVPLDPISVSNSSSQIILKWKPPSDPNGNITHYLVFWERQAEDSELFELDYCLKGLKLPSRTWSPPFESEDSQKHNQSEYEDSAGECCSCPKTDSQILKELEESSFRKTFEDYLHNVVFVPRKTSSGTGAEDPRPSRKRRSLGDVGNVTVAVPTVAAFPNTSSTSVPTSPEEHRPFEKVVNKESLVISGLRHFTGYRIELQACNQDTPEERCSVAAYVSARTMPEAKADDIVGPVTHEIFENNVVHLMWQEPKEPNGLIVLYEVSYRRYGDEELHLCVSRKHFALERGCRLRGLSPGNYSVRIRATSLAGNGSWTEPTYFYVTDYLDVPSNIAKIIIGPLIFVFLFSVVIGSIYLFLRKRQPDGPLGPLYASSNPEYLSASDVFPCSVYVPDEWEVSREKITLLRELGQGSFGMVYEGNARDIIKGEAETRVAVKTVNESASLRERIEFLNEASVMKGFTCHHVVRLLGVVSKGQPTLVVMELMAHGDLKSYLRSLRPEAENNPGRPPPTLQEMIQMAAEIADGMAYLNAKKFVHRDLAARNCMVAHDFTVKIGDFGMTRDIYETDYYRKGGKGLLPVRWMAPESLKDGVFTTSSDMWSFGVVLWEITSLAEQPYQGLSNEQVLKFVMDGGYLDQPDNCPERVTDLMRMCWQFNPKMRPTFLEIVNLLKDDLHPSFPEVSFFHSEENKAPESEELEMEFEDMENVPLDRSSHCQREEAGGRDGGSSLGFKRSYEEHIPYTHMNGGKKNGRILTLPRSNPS
EGFR, sequence (P00533 25-1210, species assumed): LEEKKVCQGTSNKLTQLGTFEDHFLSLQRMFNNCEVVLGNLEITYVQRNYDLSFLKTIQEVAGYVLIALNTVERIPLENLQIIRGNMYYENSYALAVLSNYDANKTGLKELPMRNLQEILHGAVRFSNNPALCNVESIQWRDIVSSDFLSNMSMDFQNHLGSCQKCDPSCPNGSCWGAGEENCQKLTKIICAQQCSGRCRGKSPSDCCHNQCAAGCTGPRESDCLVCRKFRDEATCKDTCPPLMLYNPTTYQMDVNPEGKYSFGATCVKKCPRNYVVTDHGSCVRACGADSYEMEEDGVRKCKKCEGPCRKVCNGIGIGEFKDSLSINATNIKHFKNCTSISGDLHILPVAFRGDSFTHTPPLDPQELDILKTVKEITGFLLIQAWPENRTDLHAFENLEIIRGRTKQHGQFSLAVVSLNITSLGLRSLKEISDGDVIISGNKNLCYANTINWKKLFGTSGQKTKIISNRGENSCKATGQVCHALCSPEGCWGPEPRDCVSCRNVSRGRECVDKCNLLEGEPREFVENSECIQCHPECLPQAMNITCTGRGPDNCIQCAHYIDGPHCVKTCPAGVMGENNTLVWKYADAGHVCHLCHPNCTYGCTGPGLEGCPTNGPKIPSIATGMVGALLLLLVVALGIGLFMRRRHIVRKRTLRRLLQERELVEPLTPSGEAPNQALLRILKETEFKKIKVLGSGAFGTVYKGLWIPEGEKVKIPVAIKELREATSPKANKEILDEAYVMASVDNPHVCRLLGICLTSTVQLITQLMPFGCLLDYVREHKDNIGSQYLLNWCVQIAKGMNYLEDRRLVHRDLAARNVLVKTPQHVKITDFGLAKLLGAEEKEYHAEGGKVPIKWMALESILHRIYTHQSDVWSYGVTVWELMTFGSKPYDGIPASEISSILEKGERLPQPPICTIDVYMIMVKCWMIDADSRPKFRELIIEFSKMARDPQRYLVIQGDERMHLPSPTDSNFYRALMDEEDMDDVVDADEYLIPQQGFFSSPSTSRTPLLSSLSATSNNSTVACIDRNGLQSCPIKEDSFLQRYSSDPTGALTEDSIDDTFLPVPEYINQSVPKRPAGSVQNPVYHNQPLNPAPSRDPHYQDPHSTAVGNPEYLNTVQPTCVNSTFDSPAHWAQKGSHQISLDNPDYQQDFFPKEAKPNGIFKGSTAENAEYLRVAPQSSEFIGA
EphA2, sequence (P29317 24-976, species assumed): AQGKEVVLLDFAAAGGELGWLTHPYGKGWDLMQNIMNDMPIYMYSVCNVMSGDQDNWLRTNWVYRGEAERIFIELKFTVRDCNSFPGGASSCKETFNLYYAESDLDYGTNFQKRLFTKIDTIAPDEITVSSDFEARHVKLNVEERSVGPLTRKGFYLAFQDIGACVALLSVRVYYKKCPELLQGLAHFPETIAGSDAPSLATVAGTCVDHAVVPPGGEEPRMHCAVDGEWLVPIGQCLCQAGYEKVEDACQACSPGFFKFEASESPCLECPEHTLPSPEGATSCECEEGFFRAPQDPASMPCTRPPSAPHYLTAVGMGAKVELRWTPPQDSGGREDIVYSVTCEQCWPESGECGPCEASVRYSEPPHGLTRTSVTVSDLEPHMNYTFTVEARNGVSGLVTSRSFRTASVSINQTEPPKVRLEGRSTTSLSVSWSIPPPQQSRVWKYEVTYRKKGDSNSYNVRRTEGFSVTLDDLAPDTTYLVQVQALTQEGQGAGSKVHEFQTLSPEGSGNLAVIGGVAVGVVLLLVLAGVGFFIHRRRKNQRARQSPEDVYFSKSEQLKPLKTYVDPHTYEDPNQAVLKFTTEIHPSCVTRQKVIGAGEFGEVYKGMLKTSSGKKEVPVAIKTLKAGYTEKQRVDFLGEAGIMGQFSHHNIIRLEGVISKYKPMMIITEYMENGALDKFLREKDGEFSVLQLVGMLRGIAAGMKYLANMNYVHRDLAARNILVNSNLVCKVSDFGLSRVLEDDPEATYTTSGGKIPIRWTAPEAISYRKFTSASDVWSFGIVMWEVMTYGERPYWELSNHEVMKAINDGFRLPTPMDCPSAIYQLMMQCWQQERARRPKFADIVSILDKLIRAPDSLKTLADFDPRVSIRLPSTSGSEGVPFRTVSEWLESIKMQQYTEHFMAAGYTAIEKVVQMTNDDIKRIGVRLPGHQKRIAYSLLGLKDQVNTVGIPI
Fyn, sequence (P06241 whole entry, species assumed): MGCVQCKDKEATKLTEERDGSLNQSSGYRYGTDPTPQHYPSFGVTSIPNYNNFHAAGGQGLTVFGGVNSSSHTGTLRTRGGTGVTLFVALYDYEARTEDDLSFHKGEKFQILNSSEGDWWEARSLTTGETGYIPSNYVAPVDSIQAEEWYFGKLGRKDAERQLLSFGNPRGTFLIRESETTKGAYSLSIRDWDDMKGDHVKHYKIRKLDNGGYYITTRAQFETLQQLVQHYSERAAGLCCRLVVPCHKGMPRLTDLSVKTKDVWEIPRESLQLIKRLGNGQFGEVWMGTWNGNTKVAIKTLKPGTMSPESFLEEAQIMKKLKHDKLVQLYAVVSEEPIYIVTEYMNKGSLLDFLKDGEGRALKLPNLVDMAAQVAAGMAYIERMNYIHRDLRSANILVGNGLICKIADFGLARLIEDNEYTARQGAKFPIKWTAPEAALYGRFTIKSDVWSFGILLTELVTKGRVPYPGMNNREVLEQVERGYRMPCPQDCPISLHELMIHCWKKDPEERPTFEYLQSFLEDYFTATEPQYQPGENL

pIC50 (Fyn) | pIC50 (EphA2) | pIC50 (IRK) | pIC50 (c-Kit kinase) | pIC50 (EGFR) | pIC50 (Flt3) | pIC50 (ALK) | pIC50 (FGFR1) | pIC50 [1] | pIC50 (PDGFR alpha) | SMILES
> 7.30 | 6.30 to 7.30 | 5.30 to 6.30 | > 7.30 | 6.30 to 7.30 | > 7.30 | 6.30 to 7.30 | – | – | – | CCN1CCC(Nc2ccc3c(c2)/C(=C(\c2cc(F)cc(F)c2)c2nc(C)c[nH]2)C(=O)N3)CC1 [Entry 74, (3Z)-3-[(3,5-difluorophenyl)(4-methyl-1H-imidazol-2-yl)methylidene]-5-[(1-ethylpiperidin-4-yl)amino]-1,3-dihydro-2H-indol-2-one]
> 7.30 | 5.30 to 6.30 | 5.30 to 6.30 | > 7.30 | 6.30 to 7.30 | > 7.30 | – | > 7.30 | > 7.30 | > 7.30 | CCN1CCC(Nc2ccc3c(c2)/C(=C(/c2ncc[nH]2)c2cc(F)c(Cl)cc2Cl)C(=O)N3)CC1 [Entry 116, (3Z)-3-[(2,4-dichloro-5-fluorophenyl) (1H-imidazol-2-yl)methylidene]-5-[(1-ethylpiperidin-4-yl)amino]-1,3-dihydro-2H-indol-2-one]
> 7.30 | 5.30 to 6.30 | 5.30 to 6.30 | > 7.30 | 6.30 to 7.30 | > 7.30 | – | > 7.30 | > 7.30 | > 7.30 | CCN1CCC(Nc2ccc3c(c2)/C(=C(/c2nc(C)c[nH]2)c2cc(F)c(Cl)cc2Cl)C(=O)N3)CC1 [Entry 117, (3Z)-3-[(2,4-dichloro-5-fluorophenyl)(4-methyl-1H-imidazol-2-yl)methylidene]-5-[(1-ethylpiperidin-4-yl)amino]-1,3-dihydro-2H-indol-2-one]
